# Columns and labels:
# Format in all cases: in vivo
# [1] = test system: Amaranthus retoflexus (AMARE); assay: Pre-emergence herbicidal test; details: 1000 g/ha, evaluated after 13 days
# [2] = test system: Setaria faberi (SETFA); assay: Pre-emergence herbicidal test; details: 1000 g/ha, evaluated after 13 days
# [3] = test system: Echinochloa crus-galli (ECHCG); assay: Pre-emergence herbicidal test; details: 1000 g/ha, evaluated after 13 days
# [4] = test system: Ipomoea hederacea (IPOHE); assay: Pre-emergence herbicidal test; details: 1000 g/ha, evaluated after 13 days
# [5] = test system: Abutilon theophrasti (ABUTH); assay: Pre-emergence herbicidal test; details: 1000 g/ha, evaluated after 13 days
# [6] = test system: Zea mays (ZEAMX); assay: Pre-emergence herbicidal test; details: 1000 g/ha, evaluated after 13 days
# [7] = test system: Abutilon theophrasti (ABUTH); assay: Post-emergence herbicidal test; details: 1000 g/ha unless otherwise stated, evaluated after 13 days
# Procedure, shortened: (§1)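 Scores on a five-point scale: 5=81-100%, 4=61-80%, 3=41-60%, 2=21-40%, 1=10-20%, 0=0% damage. These are assessed 13 days after spraying at 1000 g/ha unless stated.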
# [8] = test system: Amaranthus retoflexus (AMARE); assay: Post-emergence herbicidal test; details: 1000 g/ha unless otherwise stated, evaluated after 13 days
# Procedure, shortened: as §1
# [9] = test system: Echinochloa crus-galli (ECHCG); assay: Post-emergence herbicidal test; details: 1000 g/ha unless otherwise stated, evaluated after 13 days
# Procedure, shortened: as §1
# [10] = test system: Ipomoea hederacea (IPOHE); assay: Post-emergence herbicidal test; details: 1000 g/ha unless otherwise stated, evaluated after 13 days
# Procedure, shortened: as §1
# [11] = test system: Setaria faberi (SETFA); assay: Post-emergence herbicidal test; details: 1000 g/ha unless otherwise stated, evaluated after 13 days
# Procedure, shortened: as §1
# [12] = test system: Zea mays (ZEAMX); assay: Post-emergence herbicidal test; details: 1000 g/ha unless otherwise stated, evaluated after 13 days
# Procedure, shortened: as §1
SMILES,"percentage damage caused to the plant, five-point scale, AMARE [1]","percentage damage caused to the plant, five-point scale, SETFA [2]","percentage damage caused to the plant, five-point scale, ECHCG [3]","percentage damage caused to the plant, five-point scale, IPOHE [4]","percentage damage caused to the plant, five-point scale, ABUTH [5]","percentage damage caused to the plant, five-point scale, ZEAMX [6]","percentage damage caused to the plant, ABUTH (five-point scale) [7]","percentage damage caused to the plant, AMARE (five-point scale) [8]","percentage damage caused to the plant, ECHCG (five-point scale) [9]","percentage damage caused to the plant, IPOHE (five-point scale) [10]","percentage damage caused to the plant, SETFA (five-point scale) [11]","percentage damage caused to the plant, ZEAMX (five-point scale) [12]"
"CCOC(=O)c1nn(-c2ccc(OC(F)(F)F)cc2)c2cc(C#N)cc(SC)c2c1=O [Compound P55, ethyl 7-cyano-5-methylsulfanyl-4-oxo-1-[4-(trifluoromethoxy)phenyl]cinnoline-3-carboxylate]",0 (0=0%),0 (0=0%),0 (0=0%),0 (0=0%),1 (1=10-20%),0 (0=0%),0 (0=0%),0 (0=0%),0 (0=0%),0 (0=0%),0 (0=0%),0 (0=0%)
"CS(=O)(=O)c1cccc2c1c(=O)c(C(=O)SCCCc1ccccc1)nn2-c1ccc(OC(F)(F)F)cc1 [Compound P92, S-(3-phenylpropyl) 5-methyslulfonyl-4-oxo-1-[4-(trifluoromethoxy)phenyl]cinnoline-3-carbothioate]",1 (1=10-20%),3 (3=41-60%),1 (1=10-20%),0 (0=0%),1 (1=10-20%),0 (0=0%),2 (2=21-40%),1 (1=10-20%),3 (3=41-60%),2 (2=21-40%),3 (3=41-60%),1 (1=10-20%)
"CS(=O)(=O)c1cccc2c1c(=O)c(C(=O)OCC(F)F)nn2-c1ccc(OC(F)(F)F)cc1 [Compound P67, 2,2-difluoroethyl 5-methylsulfonyl-4-oxo-1-[4-(trifluoromethoxy)phenyl]cinnoline-3-carboxylate]",0 (0=0%),5 (5=81-100%),4 (4=61-80%),0 (0=0%),0 (0=0%),2 (2=21-40%),1 (1=10-20%),1 (1=10-20%),3 (3=41-60%),1 (1=10-20%),4 (4=61-80%),1 (1=10-20%)
"CCOC(=O)c1nn(-c2ccc(OC(F)(F)F)cc2)c2ccc(CC(C)C)c(S(C)(=O)=O)c2c1=O [Compound P45, ethyl 6-isobutyl-5-methylsulfonyl-4-oxo-1-[4-(trifluoromethoxy)phenyl]cinnoline-3-carboxylate]",0 (0=0%),0 (0=0%),0 (0=0%),0 (0=0%),0 (0=0%),0 (0=0%),0 (0=0%),0 (0=0%),1 (1=10-20%),0 (0=0%),1 (1=10-20%),1 (1=10-20%)
"CCOC(=O)c1nn(-c2ccc(OC(F)(F)F)cc2)c2cc(F)cc(SC)c2c1=O [Compound P54, ethyl 7-fluoro-5-methylsulfanyl-4-oxo-1-[4-(trifluoromethoxy)phenyl]cinnoline-3-carboxylate]",1 (1=10-20%),2 (2=21-40%),2 (2=21-40%),0 (0=0%),1 (1=10-20%),0 (0=0%),1 (1=10-20%),2 (2=21-40%),0 (0=0%),1 (1=10-20%),0 (0=0%),1 (1=10-20%)
"CCOC(=O)c1nn(-c2ccc(OC(F)(F)F)cc2)c2ccc(C#N)c(S(C)(=O)=O)c2c1=O [Compound P47, ethyl 6-cyano-5-methylsulfonyl-4-oxo-1-[4-(trifluoromethoxy)phenyl]cinnoline-3-carboxylate]",0 (0=0%),0 (0=0%),0 (0=0%),0 (0=0%),0 (0=0%),0 (0=0%),0 (0=0%),0 (0=0%),1 (1=10-20%),0 (0=0%),1 (1=10-20%),0 (0=0%)
"CCOC(=O)c1nn(-c2ccc(OC(F)(F)F)cc2)c2cccc([S+](C)[O-])c2c1=O (stereo not drawn) [Compound P28, ethyl 5-methylsulfinyl-4-oxo-1-[4-(trifluoromethoxy)phenyl]cinnoline-3-carboxylate]",0 (0=0%),0 (0=0%),0 (0=0%),0 (0=0%),0 (0=0%),0 (0=0%),1 (1=10-20%),1 (1=10-20%),0 (0=0%),0 (0=0%),1 (1=10-20%),0 (0=0%)

# — patent US20230250066A1, “HERBICIDAL CINNOLINE DERIVATIVES” (SYNGENTA CROP PROTECTION AG, priority 2020, published 2023)
